In patent US10555987B2, “GHRH agonists for the treatment of ischemic disorders” (UNIVERSITY OF MIAMI, priority 2012, dated 2020):
Where “and” joins values, the source holds several entries; their conditions need not be identical. Identical values can stand only once. Entries after “also recorded” stand apart in the source; their conditions may differ. Non-standard residues stand in square brackets, D forms with d. Residues, ends and D or L forms follow the SMILES beside them. *: point of attachment. Desaminotyrosyl = O=C(CCc1ccc(O)cc1)*; NMeY = CN[C@@H](Cc1ccc(O)cc1)C(=O)O; Agmatine = N=C(N)NCCCCN*; Nle = CCCC[C@H](N)C(=O)O; Orn = NCCC[C@H](N)C(=O)O; Abu = CC[C@H](N)C(=O)O

Columns and labels:
[1] = system: myocardial infarction (Fisher-344 rats); experiment: Echocardiography in rat myocardial infarction model, treatment from 4 weeks post-MI (Example 13); assay type: in vivo; conditions: mean ± SEM; for EF (4 Weeks): 50 μg/kg s.c. twice daily for 4 weeks; for EF (Baseline): ejection fraction at baseline
Procedure: (§1) Myocardial infarction (MI) was induced by permanent ligation of the left coronary artery in female 6-month-old Fisher-344 rats. Animals were randomly assigned to receive placebo (DMSO+propylene glycol) or one of the GHRH-agonists (JI-38, MR-356/P-20356, MR-409/P-27409, all 50 μg/kg), starting 4 weeks post-MI. All treatment was given subcutaneously twice daily for 4 weeks.
Echocardiographic measurements were obtained at baseline, 2 days, 1, 2 and 4 weeks. Echocardiographic assessments were performed in anesthetized rats (2% isoflurane inhalation) using a Vevo-770 echocardiogram (Visual Sonics Inc., Toronto, Ontario, Canada) equipped with a 17.5-MHz transducer. Cardiac dimensions: LV end diastolic (LVEDD), end systolic (LVESD) diameters and fractional shortening (FS) were recorded from M-mode images using averaged measurements from 3 to 5 consecutive cardiac cycles according to the American Society of Echocardiography. Ejection fraction (EF) was calculated from bi-dimensional long-axis parasternal views taken through the infarcted area. All images were analyzed using Vevo 770 3.0.0 software (Visual Sonics Inc., Toronto, Ontario, Canada).

[2] = system: myocardial infarction (Fisher-344 rats); experiment: Morphometric analysis of infarct size, rat MI model (Example 13); assay type: in vivo; conditions: 50 μg/kg s.c. twice daily for 4 weeks; mean ± SEM
Procedure: as §1
Rat hearts were processed using routine histological procedures. Samples were fixed in formalin.
(§2) Paraffin sections were deparaffinized and rehydrated by immersion in xylene followed by a graded series of ethanol. Antigen retrieval was performed by a heat-induced method with citrate buffer (Dako, Carpinteria, Calif.). After blocking with 10% normal donkey serum, sections were incubated with a primary antibody at 37° C. for 1 hour, followed by application of secondary antibody. Omission of the primary antibodies on parallel sections was used as negative control. Nuclei were counterstained with DAPI (Invitrogen, Carlsbad, Calif.). The total numbers of positively-stained cells (c-kit, CD45, phospho-histone H3 [pH3]) were quantified per slide to calculate the number of cells per section on each sample. Morphometric analysis was performed using Adobe Photoshop CS3 (San Jose, Calif.).

[3] = system: myocardial infarction (Fisher-344 rats); experiment: Immunostaining of heart tissue (pH3, c-kit, arterioles), rat MI model (Example 13); assay type: in vivo; conditions: for c-kit (positive cells in the heart) / phospho H3 (positive cells in the heart): 50 μg/kg s.c. twice daily for 4 weeks, mean ± SEM; for number of arterioles: isolectin / SMA22a co-staining of heart sections
Procedure: as §1, §2
Heart sections were co-stained with isolectin (endothelial cell marker) and vascular smooth muscle (SMA22a) to identify arterioles which play a crucial role in cardiac repair. […] An inverse correlation between number of arterioles and infarct size was observed (FIG. 5C).

[4] = system: myocardial infarction (Fischer 344 rats); experiment: Echocardiography in rat MI model, treatment from 2 hours post-surgery (Example 14); assay type: in vivo; conditions: echocardiographic measurements at day 2 post-MI
Procedure: (§3) MI was induced in female 6-month-old Fischer 344 rats by permanent ligation of left ventricular (LV) anterior descending coronary artery. Animals were randomly assigned to receive placebo or one of the following GHRH agonists (MR-356, MR-361, MR-367, MR-403, MR-404, MR-409 and MR-502) starting 2 hours post-surgery. All treatment (50 μg/kg) was given subcutaneously twice daily for 4 weeks. The Institutional Animal Care and Use committee of the University of Miami approved all protocols and experimental procedures.
Longitudinal evaluation of LV remodeling was obtained by echocardiographic measurements between baseline and 4 weeks following MI. Echocardiographic assessments were performed in anesthetized rats (1-2% isoflurane inhalation) using a Vevo-770 echocardiogram (Visual Sonics Inc., Toronto, Ontario, Canada) equipped with 25 MHz transducer. Cardiac dimensions were recorded from M-mode images using averaged measurements from 3 to 5 consecutive cardiac cycles. LV end-diastolic and end-systolic volumes and ejection fraction (EF) were calculated from bi-dimensional long-axis parasternal views taken through the infarcted area. All images were analyzed using Vevo 770 3.0.0 software (Visual Sonics).

[5] = system: myocardial infarction (Fischer 344 rats); experiment: Morphometric analysis, percentage of infarcted myocardium (Example 14); assay type: in vivo, rat; conditions: vs. placebo, FIG. 8
Procedure: as §3
Slides were prepared with H&E and Masson's trichrome stain to assess cardiac structure and the presence and extent of myocardial scar, respectively. The percentage of infarcted myocardium was calculated.

GHRH receptor [6] = molecular target: T1, GHRH receptor (Homo sapiens, UniProt Q02643); experiment: Receptor binding in vitro, 125I-labeled [His1,Nle27]-hGHRH(1-32)NH2, membrane receptors of human anterior pituitary cells (Table 14); conditions: for Relative affinity (Binding potency) compared to JI-38: JI-38 = 1; for Relative affinity (Binding potency) compared to hGHRH(1-29): hGHRH(1-29)NH2 = 1
T1 sequence (Q02643 23-423): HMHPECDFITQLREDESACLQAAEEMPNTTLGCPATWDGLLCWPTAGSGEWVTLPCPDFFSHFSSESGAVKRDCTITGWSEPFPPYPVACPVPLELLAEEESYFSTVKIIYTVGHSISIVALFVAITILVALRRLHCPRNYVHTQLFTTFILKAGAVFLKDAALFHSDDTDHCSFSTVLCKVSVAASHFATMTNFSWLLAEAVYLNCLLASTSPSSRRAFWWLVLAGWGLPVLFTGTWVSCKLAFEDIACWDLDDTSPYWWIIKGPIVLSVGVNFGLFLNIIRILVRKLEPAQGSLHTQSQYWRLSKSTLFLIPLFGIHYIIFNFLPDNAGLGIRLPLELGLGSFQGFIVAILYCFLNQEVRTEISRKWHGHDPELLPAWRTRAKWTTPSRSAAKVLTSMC
Excerpt: Normal human pituitary was purchased from the National Hormone and Peptide Program (UCLA Medical Center, Torrance, Calif.).

GHRH receptor [7] = molecular target: T1, GHRH receptor; experiment: GHRH receptor binding, competition with 125I-labeled JV-1-42, human pituitary membrane homogenates (Table 7); design: Normal human pituitaries were purchased from the National Hormone and Peptide Program; tissue National Hormone and Peptide Program (A.F. Parlow, Harbor-UCLA Medical Center, Torrance, Calif.); host or cells: normal human pituitary, membrane fraction; conditions: for Relative affinity (Binding potency) vs JI-38: JI-38 = 1, Table 7
Excerpt: Normal human pituitaries were purchased from the National Hormone and Peptide Program (A.F. Parlow, Los Angeles, County Harbor-UCLA Medical Center, Torrance, Calif.).

Row | Structure (SMILES) | EF (4 Weeks) [1] [%] | EF (Baseline) [1] [%] | MI size (%) [2] [%] | c-kit (positive cells in the heart) [3] | phospho H3 (positive cells in the heart) [3] | number of arterioles [3] | EF at day 2 post-MI [4] | infarct size (MI %) [5] | Relative affinity (Binding potency) compared to JI-38 (GHRH receptor [6]) | Relative affinity (Binding potency) compared to hGHRH(1-29) (GHRH receptor [6]) | IC50 (GHRH receptor [7]; 125I-JV-1-42, human pituitary membranes, Table 7) [nM] | Relative affinity (Binding potency) vs JI-38 (GHRH receptor [7]) | infarct size (MI %) ([5]; listed as MR-356) | Relative affinity (Binding potency) compared to JI-38 (GHRH receptor [6]; listed as MR-356) | GHRH receptor binding affinity (in words) (GHRH receptor [6]; compared to JI-38) | infarct size (MI %) ([5]; listed as MR-409)
1 | CCCC[C@H](NC(=O)[C@@H](NC(=O)[C@H](CC(=O)O)NC(=O)[C@H](CCC(N)=O)NC(=O)[C@H](CC(C)C)NC(=O)[C@H](CC(C)C)NC(=O)[C@H](CCCN)NC(=O)[C@H](CCCNC(=N)N)NC(=O)[C@H](C)NC(=O)[C@H](CO)NC(=O)[C@H](CC(C)C)NC(=O)[C@H](CCC(N)=O)NC(=O)[C@H](CC)NC(=O)[C@H](CC(C)C)NC(=O)[C@@H](NC(=O)[C@H](CCCN)NC(=O)[C@H](CCCNC(=N)N)NC(=O)[C@H](Cc1ccc(O)cc1)NC(=O)[C@H](CO)NC(=O)[C@H](CCC(N)=O)NC(=O)[C@@H](NC(=O)[C@H](Cc1ccccc1)NC(=O)[C@@H](NC(=O)[C@H](C)NC(=O)[C@H](CC(=O)O)NC(=O)[C@H](C)NC(=O)CCc1ccc(O)cc1)[C@@H](C)CC)[C@@H](C)O)C(C)C)[C@@H](C)CC)C(=O)N[C@@H](CC(=O)O)C(=O)NCCCCNC(=N)N [JI-38, [Dat^1, Gln^8, Orn^12,21, Abu^15, Nle^27, Asp^28, Agm^29]hGHRH(1-29)NH2, reference compound] (Desaminotyrosyl-ADAIFTQSYR[Orn]VL[Abu]QLSAR[Orn]LLQDI[Nle]D-Agmatine) | 47 ± 2.4 | 88 ± 1.2 | 42 ± 1.3 | 53 ± 6.7 | 71 ± 9.2 | significantly increased | slightly better preserved | significantly attenuated; also recorded: substantial reductions | 1.00 | 2.79 | 4.35 | 1 | – | – | – | –
2 | CCCC[C@H](NC(=O)[C@@H](NC(=O)[C@H](CC(=O)O)NC(=O)[C@H](CCC(N)=O)NC(=O)[C@H](CC(C)C)NC(=O)[C@H](CC(C)C)NC(=O)[C@H](CCCN)NC(=O)[C@H](CCCNC(=N)N)NC(=O)[C@H](C)NC(=O)[C@H](CO)NC(=O)[C@H](CC(C)C)NC(=O)[C@H](CCC(N)=O)NC(=O)[C@H](CC)NC(=O)[C@H](CC(C)C)NC(=O)[C@@H](NC(=O)[C@H](CCCN)NC(=O)[C@H](CCCNC(=N)N)NC(=O)[C@H](Cc1ccc(O)cc1)NC(=O)[C@H](CO)NC(=O)[C@H](CCC(N)=O)NC(=O)[C@@H](NC(=O)[C@H](Cc1ccccc1)NC(=O)[C@@H](NC(=O)[C@H](C)NC(=O)[C@H](CC(=O)O)NC(=O)[C@H](C)NC(=O)[C@H](Cc1ccc(O)cc1)NC)[C@@H](C)CC)[C@@H](C)O)C(C)C)[C@@H](C)CC)C(=O)N[C@@H](CC(=O)O)C(=O)NCCCCNC(=N)N [Peptide P-20356, [N—Me-Tyr^1, Gln^8, Orn^12, Abu^15, Orn^21, Nle^27, Asp^28, Agm^29]hGHRH(1-29) NH2] (H-[NMeY]ADAIFTQSYR[Orn]VL[Abu]QLSAR[Orn]LLQDI[Nle]D-Agmatine) | 51 ± 2.7 | 88 ± 0.6 | 37 ± 2.5 | 59 ± 7.1 | 65 ± 9.3 | significantly increased | slightly better preserved | – | – | 7.50 | – | 16.11 | significantly attenuated; also recorded: substantial reductions | 2.7 and 2.69 | improved receptor binding affinity | –
3 | CCCC[C@H](NC(=O)[C@@H](NC(=O)[C@H](CC(=O)O)NC(=O)[C@H](CCC(N)=O)NC(=O)[C@H](CC(C)C)NC(=O)[C@H](CC(C)C)NC(=O)[C@H](CCCN)NC(=O)[C@H](CCCNC(=N)N)NC(=O)[C@H](C)NC(=O)[C@H](CO)NC(=O)[C@H](CC(C)C)NC(=O)[C@H](CCC(N)=O)NC(=O)[C@H](CC)NC(=O)[C@H](CC(C)C)NC(=O)[C@@H](NC(=O)[C@H](CCCN)NC(=O)[C@H](CCCNC(=N)N)NC(=O)[C@H](Cc1ccc(O)cc1)NC(=O)[C@H](CO)NC(=O)[C@H](CC(N)=O)NC(=O)[C@@H](NC(=O)[C@H](Cc1ccccc1)NC(=O)[C@@H](NC(=O)[C@H](C)NC(=O)[C@H](CC(=O)O)NC(=O)[C@@H](C)NC(=O)[C@H](Cc1ccc(O)cc1)NC)[C@@H](C)CC)[C@@H](C)O)C(C)C)[C@@H](C)CC)C(=O)N[C@@H](CC(=O)O)C(=O)N[C@@H](CCCNC(=N)N)C(=O)NC [Peptide P-27409, [N—Me-Tyr^1, D-Ala^2, Orn^12, Abu^15, Orn^21, Nle^27, Asp^28]hGHRH(1-29)NH—CH3] (H-[NMeY][dA]DAIFTNSYR[Orn]VL[Abu]QLSAR[Orn]LLQDI[Nle]DR-NHMe) | 48 ± 2.8 | 90 ± 0.8 | 42 ± 1.9 | 68 ± 5.5 | 47 ± 5.8 | significantly increased | – | – | 2.71 | 7.57 | – | 4.10 | – | – | – | significantly attenuated; also recorded: substantial reductions
